Activity calls are given as the source filed them.
What was measured:
[1] = luciferase reporter signal suppression in cells – H4 neuroglioma cells, luminescence, dose response (AID 1990); format: functional, cell-based
[2] = biological target: Sphingosine 1-phosphate receptor 2 (Homo sapiens, UniProt O95136); test: Dose Response Cell Based Assay for Antagonists of the S1P2 Receptor. [Related pubchem assays: 856, 736 ]; format: functional
[3] = Luminescence Cell-Based Dose Response HTS to Identify Inhibitors of 5'UTR Stem-Loop Driven Prion Protein mRNA Translation in H4 Neuroglioblastoma Cells. [Related pubchem assays: 1827 (Project Summary), 1813 (Primary HTS)]; format: functional
[4] = alpha-synuclein stem-loop luciferase translation blockers – H4 neuroglioma cells, luminescence, confirmation (AID 1988); format: functional, cell-based
Mucolipin-3 = biological target: T1, Mucolipin-3 (Homo sapiens, UniProt Q8TDD5); test: Dose response cell-based high-throughput screening assay for agonists of the transient receptor potential channel ML3 (TRPML3). [Related pubchem assays: 1526, 1424, 1448 ]; format: functional
T1 sequence (Q8TDD5 whole entry): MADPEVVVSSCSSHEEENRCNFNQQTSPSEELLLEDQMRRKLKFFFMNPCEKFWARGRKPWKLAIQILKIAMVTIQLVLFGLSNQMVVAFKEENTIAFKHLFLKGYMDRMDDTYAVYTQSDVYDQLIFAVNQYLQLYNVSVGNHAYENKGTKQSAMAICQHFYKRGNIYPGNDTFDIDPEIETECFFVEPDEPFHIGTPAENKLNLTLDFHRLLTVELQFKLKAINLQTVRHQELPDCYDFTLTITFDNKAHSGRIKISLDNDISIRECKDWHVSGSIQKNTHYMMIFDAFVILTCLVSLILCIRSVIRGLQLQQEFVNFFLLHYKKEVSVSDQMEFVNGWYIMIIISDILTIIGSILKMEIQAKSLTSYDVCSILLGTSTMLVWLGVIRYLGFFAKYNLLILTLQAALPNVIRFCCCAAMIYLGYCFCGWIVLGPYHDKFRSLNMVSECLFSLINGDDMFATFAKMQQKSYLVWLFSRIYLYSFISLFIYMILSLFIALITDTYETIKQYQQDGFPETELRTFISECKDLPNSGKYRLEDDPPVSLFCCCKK

Ion channel NompC = Ion channel NompC (Danio rerio, UniProt Q7T1G6); test: Fluorescence counterscreen assay for TRPML3 agonists: dose response cell-based high-throughput screening assay to identify agonists of the transient receptor potential channel N1 (TRPN1). [Related pubchem assays: 1526, 1424, 1448 ]; format: functional
Sequence of Ion channel NompC (Q7T1G6 whole entry): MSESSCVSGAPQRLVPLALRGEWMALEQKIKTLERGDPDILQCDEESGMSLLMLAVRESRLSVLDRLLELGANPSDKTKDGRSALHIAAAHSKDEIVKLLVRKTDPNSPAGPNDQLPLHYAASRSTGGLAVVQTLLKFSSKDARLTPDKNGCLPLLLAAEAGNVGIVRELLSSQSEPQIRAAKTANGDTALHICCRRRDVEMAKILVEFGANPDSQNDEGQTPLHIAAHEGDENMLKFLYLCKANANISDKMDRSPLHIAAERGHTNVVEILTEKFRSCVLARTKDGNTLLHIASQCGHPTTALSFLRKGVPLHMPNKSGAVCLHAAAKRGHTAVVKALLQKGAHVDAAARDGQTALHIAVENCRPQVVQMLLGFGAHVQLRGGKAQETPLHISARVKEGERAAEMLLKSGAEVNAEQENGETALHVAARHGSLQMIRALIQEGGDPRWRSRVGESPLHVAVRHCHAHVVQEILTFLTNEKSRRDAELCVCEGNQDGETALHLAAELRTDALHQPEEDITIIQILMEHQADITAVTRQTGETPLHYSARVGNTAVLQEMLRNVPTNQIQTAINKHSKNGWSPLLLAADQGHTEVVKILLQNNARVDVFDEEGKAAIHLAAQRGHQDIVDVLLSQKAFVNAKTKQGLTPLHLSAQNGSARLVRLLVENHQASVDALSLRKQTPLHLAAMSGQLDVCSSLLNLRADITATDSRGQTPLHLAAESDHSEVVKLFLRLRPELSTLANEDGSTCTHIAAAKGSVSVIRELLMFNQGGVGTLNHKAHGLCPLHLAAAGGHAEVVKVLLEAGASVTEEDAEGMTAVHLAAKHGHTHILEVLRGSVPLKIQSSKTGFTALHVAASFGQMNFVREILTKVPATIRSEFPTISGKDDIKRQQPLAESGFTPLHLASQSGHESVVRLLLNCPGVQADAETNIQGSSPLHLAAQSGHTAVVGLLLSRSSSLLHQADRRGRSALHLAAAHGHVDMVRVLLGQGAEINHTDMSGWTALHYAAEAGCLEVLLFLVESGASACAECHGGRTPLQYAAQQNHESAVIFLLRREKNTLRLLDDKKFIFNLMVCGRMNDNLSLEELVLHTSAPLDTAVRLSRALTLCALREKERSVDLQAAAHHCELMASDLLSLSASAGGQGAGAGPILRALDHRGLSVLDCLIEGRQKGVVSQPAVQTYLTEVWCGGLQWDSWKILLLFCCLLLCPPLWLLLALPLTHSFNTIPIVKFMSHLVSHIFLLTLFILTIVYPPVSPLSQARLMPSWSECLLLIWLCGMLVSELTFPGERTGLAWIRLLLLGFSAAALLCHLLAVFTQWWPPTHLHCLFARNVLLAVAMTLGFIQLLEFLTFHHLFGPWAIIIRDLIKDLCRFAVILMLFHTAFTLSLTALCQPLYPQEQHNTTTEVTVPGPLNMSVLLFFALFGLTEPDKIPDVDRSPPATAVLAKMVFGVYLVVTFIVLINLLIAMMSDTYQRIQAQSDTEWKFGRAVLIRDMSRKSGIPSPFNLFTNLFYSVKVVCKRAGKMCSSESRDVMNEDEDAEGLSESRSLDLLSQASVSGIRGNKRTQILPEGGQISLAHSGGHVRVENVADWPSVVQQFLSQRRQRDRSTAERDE

[5] = Luminescence Cell-Based Dose Retest to Confirm Inhibitors of Cancer Stem Cells. [Related pubchem assays (depositor defined):AID2717, AID2721]; format: functional; details: Homo sapiens
Bcl-2-related protein A1 [6] = biological target: T2, Bcl-2-related protein A1 (Mus musculus, UniProt Q07440); test: small-molecule antagonists of Bfl-1/BH3 interaction – biochemical, TR-FRET, mouse Bfl-1, confirmation (AID 621);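 note: TR-FRET binding of GST-Bfl-1 to FITC-labelled Bid peptide via terbium antibody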
T2 sequence (Q07440 whole entry): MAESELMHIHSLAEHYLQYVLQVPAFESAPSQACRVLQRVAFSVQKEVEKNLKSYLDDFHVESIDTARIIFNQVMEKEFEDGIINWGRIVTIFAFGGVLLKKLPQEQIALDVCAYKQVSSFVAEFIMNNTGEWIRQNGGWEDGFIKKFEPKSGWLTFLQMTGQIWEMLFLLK

Bcl-2-related protein A1 [7] = biological target: T2, Bcl-2-related protein A1; test: Bfl-1 binding inhibitors, SAR follow-up, biochemical, fluorescence polarization (AID 1070)
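Throughout, for AC50: cells exposed to compound for roughly 70 hours or longer before luminescence read.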

Sequence of Sphingosine 1-phosphate receptor 2 (O95136 whole entry): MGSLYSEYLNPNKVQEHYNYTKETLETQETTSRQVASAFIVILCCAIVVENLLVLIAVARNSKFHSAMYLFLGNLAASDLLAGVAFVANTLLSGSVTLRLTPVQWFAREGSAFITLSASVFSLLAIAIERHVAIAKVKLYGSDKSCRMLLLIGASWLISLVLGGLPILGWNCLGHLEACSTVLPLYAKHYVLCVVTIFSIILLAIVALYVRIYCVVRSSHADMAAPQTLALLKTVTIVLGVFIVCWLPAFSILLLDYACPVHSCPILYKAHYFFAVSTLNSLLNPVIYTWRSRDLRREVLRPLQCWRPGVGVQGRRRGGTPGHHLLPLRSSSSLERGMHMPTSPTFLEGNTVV

## O=C(c1cc(NC(=O)C23CC4CC(CC(C4)C2)C3)cc(NC(=O)C23CC4CC(CC(C4)C2)C3)c1)N1CCCCC1
[1]
  EC50: 17.1 µM (active)
[2]
  IC50: 0.977 µM (active)
[3]
  EC50: 15.7 µM (active)
[4]
  EC50: 12.2 µM (inconclusive)

## O=C1C2C3C=CC(C3)C2C(=O)N1c1ccc(N2CCN(c3ccccn3)CC2)c([N+](=O)[O-])c1 (stereo unspecified)
Mucolipin-3
  EC50: > 29.9 µM (not active)
Ion channel NompC
  EC50: > 29.9 µM (not active)
[5]
  AC50: 0.619 µM (active)

## Clc1ccc(-n2nnc(-c3cnc4ccccc4c3)n2)cn1
Bcl-2-related protein A1 [6]
  IC50: > 100 µM (not active)
Bcl-2-related protein A1 [7]
  IC50: > 100 µM (not active)

## Cc1cccc(N2CCN(C3=C(Cl)C(=O)N(c4ccc(Cl)c(Cl)c4)C3=O)CC2)c1
Bcl-2-related protein A1 [6]
  IC50: > 100 µM (not active)
Bcl-2-related protein A1 [7]
  IC50: > 100 µM (not active)
